# In a melting point compilation (Tetko et al.; mined from patent text by program, amines drawn as free bases though some values may be those of a salt):
row,melting point [°C],Structure (SMILES)
1,119 to 121,Cc1cc(C)nc(NCSC(=S)N2CCOCC2)n1
2,82 to 84,CC(C)Oc1cc(CCCOc2ncccc2CC(=O)O)n(Cc2ccc(Cl)cc2OC(C)C)n1
3,90,Fc1cccc(F)c1-c1nc(C(F)(F)F)n(-c2ccccc2C(F)(F)F)n1
4,71,CSc1ccc(CCC(C)=NO)cc1
5,77 to 78,Cc1cc2c(c3c1C(c1ccc(C(C)C)cc1)CO3)CCC2 (configuration not stated)
6,158,COc1cc(C(=O)Nc2ccc3c(c2)CN(C)CC3)cc(OC)c1OC
7,178 to 180,Cc1cc(C)c(-n2ccc3c(OCc4ccc(C(F)(F)F)cc4)nn(C)c(=O)c32)c(C)c1
8,147 to 148,COc1ccc2[nH]c(S(=O)Cc3ncc(C)c(N4CCOCC4)c3Cl)nc2c1 (configuration not stated)
9,142,N#CCOc1ccc2cc(-c3ccc(-c4ccccc4)[nH]3)ccc2c1
10,177,O=C(C=Cc1cccc(S(=O)(=O)NCc2cccc3ccccc23)c1)NO
11,126 to 128,CN(C)Cc1ccc(CSCCNC(=O)C=CC(=O)NCCCOc2cccc(CN3CCCC3)c2)o1
12,235 to 237,CC1CN(c2c(F)c(F)c3c(=O)c(C(=O)O)cn(C4CC4)c3c2F)CCN1 (configuration not stated)
13,127,CC(=O)N[C@@H]1CN2C(=O)N(c3cc(Cl)nc(Cl)c3)C(=O)[C@@]2(Cc2ccc(OC(F)(F)F)cc2)C1
14,164 to 165,CCN(CC)Cc1ccc(C(N)=O)o1
15,168 to 177,C[C@@H](N(CC(=O)O)C(=O)c1ccc(OCC(F)(F)F)cc1)[C@](O)(Cn1cncn1)c1ccc(F)cc1F (relative stereo)
16,124 to 126,COc1ccc(C2(C#Cc3cccc(C#N)c3)CCC(=O)CC2)cc1OC1CCCC1
17,86 to 87,CCCc1c(OCCCOc2ccc(C(=O)C(=O)O)cc2)ccc(C(=O)OC)c1O
18,202,CCOC(=O)C(C)(C)NC(=O)c1ccc(S(=O)(=O)n2c(=O)n(C3CCCCC3)c3cc(OCC)ccc32)c(OC)c1
19,117 to 120,CCNNc1nc(C)c(C(=O)OCC)c(Cl)c1[N+](=O)[O-]
20,82 to 83,CCCCCCCCCCCCCCCCSCC(CN)n1nnc(C)n1 (configuration not stated)
21,207,CC(=CC(N)[C@@H]1CN(c2ccc(-c3cccnc3)cn2)C(=O)O1)[N+](=O)[O-] (some centres not stated)
22,148 to 150,CCCCNCCNC(=O)Nc1ccccc1C(=O)NCC1CCN(C(c2ccccc2)c2ccccc2)CC1
23,96.5 to 99.5,CCCCc1ccccc1NC(C)=O
24,88 to 90,COc1ccc(N(CCCCO)S(=O)(=O)c2c(F)c(F)c(F)c(F)c2F)cc1

row,melting point [°C],Structure (SMILES)
1,130 to 132,COC(=O)[C@H](O)[C@@H](NC(=O)OC(C)(C)C)c1ccccc1
2,> 280,Cn1cnc(-c2ccc(NC(=C3C(=O)Oc4ccccc43)c3ccc(C(C)(C)N)cc3)cc2)c1
3,149 to 150,CCCC1=C(O)C(C(=O)CC)C(=O)OC1=O (configuration not stated)
4,61 to 62,"CC1CCC(C(C)C)C(OC(=O)CCC(=O)OC2CC(C)CCC2C(C)C)C1 (single isomer, unassigned; (-))"
5,149 to 150,CNC(=O)Cc1ccc2ccn(C3CCN(CCc4ccc(F)cc4)CC3)c2c1
6,207 to 208,CCc1c(CNc2ccc3ccc(C)nc3n2)c(CC)c(CNc2ccc3ccc(C)nc3n2)c(CC)c1CNc1ccc2ccc(C)nc2n1
7,176,C[C@]12C[C@H](c3ccc(OCCCCCCCl)cc3)[C@@H]3c4ccc(O)cc4CC[C@H]3[C@@H]1CC[C@@H]2O
8,163 to 165,COc1cc(-c2csnc2C)cc2oc(=O)c(C)c(C)c12
9,178,COc1ccc(N2CCN(c3ccc(NC4=NCC(OC)S4)cc3)CC2)cc1 (configuration not stated)
10,110 to 112,N#Cc1cc(N)ccc1N1CCC(N2CCCCC2)CC1
11,89 to 91,C[C@H]1C(=O)OCN1C(=O)OCc1ccccc1
12,80 to 82,CCCCCCCCCCCCCCOc1ccc(C(=O)NCCc2ccccn2)cc1
13,103 to 106,Cn1cc(C(=O)NCc2ccc(Cl)cc2)c(=O)c2cc(/C=C/CO)ccc21
14,72 to 74,O=C(Nc1ccc(Cl)c(C(F)(F)F)c1)N1NC(c2ccccc2)C(c2ccccc2)C1=O (configuration not stated)
15,216 to 217,Cc1ccc(C(=S)C=CC(=O)Nc2c(C)cccc2C)cc1
16,133 to 136,CN(Cc1ccc(NC(=O)C2=Cc3cc(Br)ccc3N(C3CC3)CC2)cc1)C1CCOCC1
17,93 to 95,CCOC(=O)c1ccc(CN2CC[C@H](NC(=O)OC(C)(C)C)C2=O)c(C(F)(F)F)c1
18,168 to 169,CCOC(=O)CC(NCCCN(C)C)C(=O)O (configuration not stated)
19,151 to 154,CC(C(=O)O)c1ccc2c(-c3ccc(F)cc3)noc2c1 (configuration not stated)
20,186 to 187,CN(CC(=O)O)C(=O)C(C)(C)Oc1ccc(C(=O)c2ccc(Cl)cc2)cc1
21,84 to 85.5,CCn1c(C)nc2cc(C(F)(F)F)c(OC)c([N+](=O)[O-])c21
22,106 to 108,COc1cccc2c1Oc1cc(Cl)ccc1C2
23,141 to 144,c1coc(C2Nc3ccccc3N3CCc4cccc2c43)c1 (configuration not stated)
24,106 to 107,COc1ccc2oc(-c3ccccc3)c(CC#N)c2c1

row,melting point [°C],Structure (SMILES)
1,124 to 126,CC(C)(C)NC(=O)c1ccccc1-c1ccc(CBr)cc1
2,195 to 200,Cc1c(C(=O)Nc2ccc(N3CCC(N4CCOCC4)CC3)c([N+](=O)[O-])c2)cnn1-c1ccc(Cl)cc1
3,88 to 90,CC(C)c1cc(-c2ccc(F)cc2)c(CO)c(C(C)C)n1
4,267,COc1cc(N)ccc1NC1=CC(=O)C(N)=CC1=O
5,< 50,Clc1ccc(OCc2ccccc2)cn1
6,133 to 135,CCN=c1[nH]c2ccccc2c2nc(-c3ccco3)nn12
7,166 to 168,Cc1cc(F)c(-n2ccc(O)n2)cc1SCC(F)(F)F
8,218 to 219,O=c1cc(-c2ccc(CO)cc2)oc2ncccc12
9,124 to 126,CC(C)CCCOc1ccc2[nH]ncc2c1
10,150 to 152,COC(=O)c1ccccc1-n1c(CCl)nc2cc(Cl)ccc2c1=O
11,61 to 67,O=C(CC1CCCCC1)c1ccccc1
12,66 to 68,CNS(=O)(=O)OCCOc1ccccc1
13,122 to 125,OC(=S)c1cc(C(F)(F)F)ccc1O
14,86 to 89,NCCOc1cc(Cl)cc(Cl)c1
15,259 to 260,Nc1nc2ccccc2c2c1ncn2Cc1cc(-c2ccc(F)cc2)no1
16,104 to 105,COc1ccc(CNc2ccccc2C)cc1O
17,131 to 132,CC1CC(c2ncc3nccc-3[nH]2)C(C)C(c2ccccc2)N1 (configuration not stated)
18,182,COc1ccc(C(=O)Nc2ccc3sc(C)nc3c2Cl)cc1
19,239 to 241,Oc1ncc(-c2ccccc2)cn1
20,120 to 121,O=Cc1ccc(-c2ccc(Br)cn2)cc1
21,214 to 232,CC1(C)CC(=O)Nc2cc3nc(-c4ccc(CO)cc4)[nH]c3cc21
22,99 to 102,CCNc1cccc(NC(=O)C(=O)OCC)c1C#N
23,68,CCOc1ccc(C(OC(C)=O)c2sccc2C=O)cc1OCC (configuration not stated)
24,254 to 256,O=C(c1sc2c([N+](=O)[O-])c(O)c(O)cc2c1Cl)N1CCCCC1

row,melting point [°C],Structure (SMILES)
1,266,CN(c1ccc(O)cc1)c1cc2ccc(Cl)cc2c(O)n1
2,153 to 155,FC(F)(F)c1cccc2c(-c3ccccc3)c(Sc3ccccc3)cnc12
3,33 to 34,CCOC(=O)C(=NNc1ccccc1CC)C(=O)OCC
4,107 to 112,CC1C(c2ncc(Cl)cc2F)=NN(C)CS1=S (configuration not stated)
5,222 to 224,NS(=O)(=O)c1ccc(-c2cnn(-c3ccc(F)cc3)c(=O)c2-c2ccc(F)cc2)cc1F
6,182 to 184,CCN1CCN(Cc2cc(-c3ccc4c(Nc5ccc(Cl)cc5Cl)c(C#N)cnc4c3)cs2)CC1
7,140 to 142,CN(C)S(=O)(=O)n1c(C(=S)NCO)nc2cc(Cl)c(Cl)cc21
8,184 to 187,CCCc1nc2c(N)nc3cc(F)ccc3c2o1
9,109 to 111,CS(=O)(=O)Nc1ccc(C=O)cc1Sc1ccc(F)cc1F
10,195 to 197,CC(C(O)c1ccc(OC(=O)c2ccc(CNC(C)(C)C)cc2)cc1)N1CCC(O)(c2ccccc2)CC1 (configuration not stated)
11,> 270,CN(C)c1cc(-c2c[nH]c(N)n2)ccn1
12,203 to 205,O=C(C=Cc1ccc(OC(F)(F)F)cc1)N1CCc2c([nH]c3ccccc23)C1c1ccc2c(c1)OCO2 (configuration not stated)
13,56 to 58,COc1cc(CO)c(N)c(OC)c1OC
14,115 to 116,COC(=O)Cn1c(C)ccc(NC(=O)OCc2ccccc2)c1=O
15,181 to 183,Cn1cc(-c2cccc(C(F)(F)F)c2)c(=O)c(-n2cncn2)c1
16,111 to 113,O=[N+]([O-])c1ccc2c(c1)OC(CO)(CO)O2
17,169 to 171,CCc1nc2ccccn2c1S(N)(=O)=S (configuration not stated)
18,92,CCOC(=O)C1Oc2ccc(Cl)cc2C(C)(c2ccccc2)O1 (configuration not stated)
19,118 to 120,COc1ccc(C)cc1NC(=O)Nc1ccc(N2CCN(C(=O)Nc3ccc(OCCO)cc3Cl)CC2)c(F)c1
20,134 to 135,CNC(=O)C(C)Oc1ncn(-c2ccccc2)n1 (configuration not stated)
21,83 to 87,CSCC(C)(C)NC(=O)c1c(I)cccc1C(=O)Nc1ccc(Cn2nc(C(F)(F)F)cc2C(F)(F)F)cc1C
22,77 to 79,CCCCCCCCc1ccc(C(=S)c2ccc(OCCCC)cc2O)cc1
23,112,Cn1cc(C2=NOCCO2)c(Cl)n1
24,158 to 161,COc1ccc(COc2cccnc2NC(=N)Nc2ccc(Cl)cc2)c(F)c1

row,Structure (SMILES),melting point [°C]
1,Cc1cccc(C2=CCN(CCCn3c(=O)[nH]c4cccc(C)c4c3=O)CC2)c1,155 to 160
2,O=C(CCl)Nc1cscn1,115 to 119
3,COc1cc2[nH]c(=O)n(-c3ccccc3C)c(=O)c2cc1OC,282 to 284
4,O=C(Nc1cccc(Br)c1)NC1C(=O)N(CC23CC4CC(CC(C4)C2)C3)c2ccccc2N(c2ccccc2)C1=O (configuration not stated),254
5,CN(C)CCc1c[nH]c2ccc(Br)cc12,82 to 85
6,O=C(O)Cc1ccc2c(c1)CCCOO2,99 to 101
